Test results from PubChem BioAssay (NCI).
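A five-concentration, 48-hour dose response in 96-well plates underlies each endpoint, interpolated linearly between surrounding concentrations. TGI is the concentration that stops growth completely.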

How the values were obtained:
Test in all cases: NCI tumour cell line growth inhibition, 48 h
SW-620 colon = system: SW-620 colon
NCI-H23 lung = system: NCI-H23 lung
SNB-19 CNS = system: SNB-19 CNS
HS 578T breast = system: HS 578T breast
SK-MEL-2 melanoma = system: SK-MEL-2 melanoma
T-47D breast = system: T-47D breast
NCI-H226 lung = system: NCI-H226 lung
MDA-N = system: MDA-N
MDA-MB-435 = system: MDA-MB-435
M14 melanoma = system: M14 melanoma
MOLT-4 leukemia = system: MOLT-4 leukemia
NCI/ADR-RES ovarian = system: NCI/ADR-RES ovarian
U251 CNS = system: U251 CNS
UO-31 renal = system: UO-31 renal
EKVX NSCLC = system: EKVX NSCLC
SF-539 CNS = system: SF-539 CNS
RXF 393 renal = system: RXF 393 renal
UACC-62 melanoma = system: UACC-62 melanoma
K-562 leukemia = system: K-562 leukemia
HOP-62 NSCLC = system: HOP-62 NSCLC
PC-3 prostate = system: PC-3 prostate
RPMI-8226 leukemia = system: RPMI-8226 leukemia
SN12C renal = system: SN12C renal
A498 renal = system: A498 renal
NCI-H460 lung = system: NCI-H460 lung
TK-10 renal = system: TK-10 renal
DU-145 prostate = system: DU-145 prostate
NCI-H522 lung = system: NCI-H522 lung
OVCAR-4 ovarian = system: OVCAR-4 ovarian
HCT-116 colon = system: HCT-116 colon
SF-268 CNS = system: SF-268 CNS
SK-OV-3 ovarian = system: SK-OV-3 ovarian
MDA-MB-231 breast = system: MDA-MB-231 breast
HT29 colon = system: HT29 colon
CAKI-1 renal = system: CAKI-1 renal
SF-295 CNS = system: SF-295 CNS
HCT-15 colon = system: HCT-15 colon
HCC-2998 colon = system: HCC-2998 colon
OVCAR-3 ovarian = system: OVCAR-3 ovarian
IGROV1 ovarian = system: IGROV1 ovarian
BT-549 breast = system: BT-549 breast
MALME-3M melanoma = system: MALME-3M melanoma
COLO 205 colon = system: COLO 205 colon
A549 NSCLC = system: A549 NSCLC
SK-MEL-5 melanoma = system: SK-MEL-5 melanoma
MCF7 breast = system: MCF7 breast
LOX IMVI melanoma = system: LOX IMVI melanoma
786-0 renal = system: 786-0 renal
ACHN renal = system: ACHN renal
OVCAR-5 ovarian = system: OVCAR-5 ovarian
KM12 colon = system: KM12 colon
SR leukemia = system: SR leukemia
SNB-75 CNS = system: SNB-75 CNS
OVCAR-8 ovarian = system: OVCAR-8 ovarian
UACC-257 melanoma = system: UACC-257 melanoma
HOP-92 NSCLC = system: HOP-92 NSCLC
SK-MEL-28 melanoma = system: SK-MEL-28 melanoma

SMILES: Cc1cc(N2CCOCC2)nc2ccc(Cc3ccc4nc(N5CCOCC5)cc(C)c4c3)cc12
- TGI (SW-620 colon): > 100 µM
- TGI (NCI-H23 lung): > 100 µM
- TGI (SNB-19 CNS): > 100 µM
- TGI (HS 578T breast): > 100 µM
- TGI (SK-MEL-2 melanoma): > 100 µM
- TGI (T-47D breast): 52.2 µM
- TGI (NCI-H226 lung): > 100 µM
- TGI (MDA-N): > 100 µM
- TGI (MDA-MB-435): > 100 µM
- TGI (M14 melanoma): > 100 µM
- TGI (MOLT-4 leukemia): > 100 µM
- TGI (NCI/ADR-RES ovarian): > 100 µM
- TGI (U251 CNS): 88.5 µM
- TGI (UO-31 renal): > 100 µM
- TGI (EKVX NSCLC): > 100 µM
- TGI (SF-539 CNS): 71.3 µM
- TGI (RXF 393 renal): > 100 µM
- TGI (UACC-62 melanoma): > 100 µM
- TGI (K-562 leukemia): > 100 µM
- TGI (HOP-62 NSCLC): > 100 µM
- TGI (PC-3 prostate): > 100 µM
- TGI (RPMI-8226 leukemia): > 100 µM
- TGI (SN12C renal): > 100 µM
- TGI (A498 renal): > 100 µM
- TGI (NCI-H460 lung): > 100 µM
- TGI (TK-10 renal): > 100 µM
- TGI (DU-145 prostate): > 100 µM
- TGI (NCI-H522 lung): > 100 µM
- TGI (OVCAR-4 ovarian): > 100 µM
- TGI (HCT-116 colon): 54.7 µM
- TGI (SF-268 CNS): > 100 µM
- TGI (SK-OV-3 ovarian): > 100 µM
- TGI (MDA-MB-231 breast): > 100 µM
- TGI (HT29 colon): 49.3 µM
- TGI (CAKI-1 renal): > 100 µM
- TGI (SF-295 CNS): > 100 µM
- TGI (HCT-15 colon): > 100 µM
- TGI (HCC-2998 colon): 34.7 µM
- TGI (OVCAR-3 ovarian): > 100 µM
- TGI (IGROV1 ovarian): > 100 µM
- TGI (BT-549 breast): > 100 µM
- TGI (MALME-3M melanoma): > 100 µM
- TGI (COLO 205 colon): 26.8 µM
- TGI (A549 NSCLC): > 100 µM
- TGI (SK-MEL-5 melanoma): 36.6 µM
- TGI (MCF7 breast): > 100 µM
- TGI (LOX IMVI melanoma): > 100 µM
- TGI (786-0 renal): > 100 µM
- TGI (ACHN renal): > 100 µM
- TGI (OVCAR-5 ovarian): > 100 µM
- TGI (KM12 colon): > 100 µM
- TGI (SR leukemia): > 100 µM
- TGI (SNB-75 CNS): > 100 µM
- TGI (OVCAR-8 ovarian): > 100 µM
- TGI (UACC-257 melanoma): > 100 µM
- TGI (HOP-92 NSCLC): > 100 µM
- TGI (SK-MEL-28 melanoma): > 100 µM
